Tests used:
[1] = tested on: Oct4, Sox2, Nanog, Rex1, Lin28, Klf4, TERT mRNA in adult human fibroblasts; test: RT-PCR and qRT-PCR of stem cell gene transcripts; assay type: cell-based
Procedure: RNA was extracted using TRIzol® reagent (Invitrogen) according to the manufacturer's protocol and quantified by spectrophotometry. 2 μg of RNA was subjected to DNase I digestion, followed by a reverse transcription using a QuantiTech® Reverse transcription kit (Qiagen) with a mixture of oligo-dT and random hexamers primers. 50 ng/well of cDNA was used as template in qPCR reactions with oligonucleotides specific for the genes of interest (Table 1 of Supplementary Information). A non-template control (NTC) and an RNA sample without RT for each sample were used to control for potential contaminating DNA. All qPCR reactions were performed in triplicate with the resultant values being combined into an average threshold cycle (CT). The efficiency of qPCR was calculated from the slope of a relative standard curve using GAPDH primers. Relative quantification was determined using a 7500 Real Time PCR system (Applied Biosystems) measuring SYBR green fluorescence (PerfeCTa™ SYBR Green FastMix, Low ROX (Quanta Biosciences)). Fold differences are calculated using the ΔΔCT method with the formula 2^−ΔΔCt. (Liss, B., “Improved quantitative real-time RT-PCR for expression profiling of individual cells”, Nucleic Acids Research 30(17), e89, 2002). Expression profiles for the mRNA transcripts are shown as fold differences in comparison to mRNA levels in control (untreated) fibroblast cells.
Total RNA was isolated using Trizol (Invitrogen) following the manufacturer's protocol. Four μg of total RNA was used to perform first strand cDNA synthesis using Superscript (Invitrogen). For RT-PCR, 0.5 μl of the first strand cDNA was used as template. PCR was performed in Mg^2+ free PCR buffer (TaKara) supplemented with 1.5 mM MgCl2, 200 μM each of dNTPs, 25 pmoles each of forward and reverse primers and 0.5 U of TaKara ExTaq polymerase per reaction. PCR cycling was done as follows: Initial denaturation at 95° C. for 2 minutes followed by 35 cycles of denaturation at 95° C. for 15 seconds; annealing at primer-specific annealing temperature for 1 minute; and extension at 72° C. for 1:30 minutes. Final extension was done at 72° C. for 10 minutes and the samples held at 4° C. until use. Amplification products were resolved on 2% agarose gels containing 0.5 μg/ml ethidium bromide in 1×TAE buffer and photographed using a Kodak […] Image Station.

[2] = tested on: adult human dermal fibroblasts (CRL-2352); test: Effect of FGF2 and oxygen level on proliferation and in vitro lifespan (population doublings to senescence); assay type: cell-based; conditions: FGF2 10 ng/ml
[3] = reduced oxygen culture plus FGF2

“FGF2: human recombinant FGF2 (Invitrogen, Chemicon or Protide), basic fibroblast growth factor” was tested, and the “transcription of Oct4, Nanog and Klf4 (RT-PCR)” value ([1]; 5% oxygen, FGF2 supplemented, day 7) was “increased”, the “transcription of Sox2, Rex1 and Lin28 (RT-PCR)” value ([1]; 5% oxygen, day 7) was “significant transcriptional dependence on FGF2” and the “Lin28 mRNA levels (qRT-PCR)” value [1, 3] was “further increased”. For the same substance, the “Rex1 and TERT mRNA (qRT-PCR)” value [1, 3] was “not further affected” and the “effect on adult fibroblast proliferation at 10 ng/ml” value [2] was “halted adult fibroblast proliferation”.

From US9290740B2, “Use of basic fibroblast growth factor in the de-differentiation of animal connective tissue cells” (Worcester Polytechnic Institute, priority 2008, dated 2016)
